Assay results published in PubChem BioAssay (NCI).
“And” between values parts separate entries of the source, which are not always exact repeats. Equal entries are not always repeated.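 Results reflect a 48-hour exposure of cells in 96-well plates to compound at five concentrations. GI50 is the concentration that inhibits growth by half. At the TGI there is no net growth.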

Key:
Test in all cases: DTP human tumour cell line panel, 48 h
TK-10 renal = test system: TK-10 renal
OVCAR-5 ovarian = test system: OVCAR-5 ovarian
SK-MEL-2 melanoma = test system: SK-MEL-2 melanoma
SK-MEL-5 melanoma = test system: SK-MEL-5 melanoma
CCRF-CEM leukemia = test system: CCRF-CEM leukemia
RXF 393 renal = test system: RXF 393 renal
KM12 colon = test system: KM12 colon
K-562 leukemia = test system: K-562 leukemia
HT29 colon = test system: HT29 colon
NCI-H23 lung = test system: NCI-H23 lung
SR leukemia = test system: SR leukemia

SMILES | TGI (TK-10 renal) [µM] | TGI (OVCAR-5 ovarian) [µM] | TGI (SK-MEL-2 melanoma) | TGI (SK-MEL-5 melanoma) | TGI (CCRF-CEM leukemia) | TGI (RXF 393 renal) [µM] | TGI (KM12 colon) [µM] | TGI (K-562 leukemia) [µM] | TGI (HT29 colon) [µM] | TGI (NCI-H23 lung) | TGI (SR leukemia) [µM] | GI50 (NCI-H23 lung)
CC(=O)N(CN1C(=O)CCC1C(=O)O)c1ccccc1Cl (configuration not stated) | > 100 | > 100 | > 100 µM | > 100 µM | > 100 µM | > 100 | > 100 | > 100 | > 100 | > 100 µM |  | 
O=C(O)CC(O)(C(=O)O)C(O)C(=O)O (configuration not stated) | > 1000 | > 1000 | > 1000 µM | > 1000 µM | > 1000 µM | > 1000 | > 1000 | > 1000 | > 1000 | > 1000 µM |  | 
Brc1cccc[n+]1-c1ccc2cc(-[n+]3ccccc3Br)ccc2c1 | 37.6 | > 100 | > 100 µM | > 100 µM | > 100 µM | 87.6 | 40 | > 100 | > 100 | > 100 µM |  | 
CC1CN=C(c2ccc(COc3ccc(C4=NCC(C)N4)cc3)cc2)N1 (configuration not stated) | > 100 | > 100 | 58.4 µM | > 100 µM | > 100 µM | > 100 | > 100 | > 100 | > 100 | > 100 µM |  | 
COc1ccc(N2C(=O)C3CC4=CC(=O)C[C@H]4[C@H]32)cc1 (some centres not stated) | > 100 | > 100 | > 100 µM |  |  | > 100 | > 100 | > 100 |  | > 100 µM | > 100 | 
Cc1cc(C)c(N=Nc2c(O)c(S(=O)(=O)O)cc3cc(S(=O)(=O)O)ccc23)cc1C | > 100 | > 100 | > 100 µM | > 100 µM | > 100 µM | > 100 | > 100 | > 100 | > 100 | > 100 µM |  | 
COc1ccccc1N=C1SCCN1C(=S)Nc1ccc(S(=O)(=O)/N=C/N(C)C)cc1 | > 100 | > 100 |  | 37 µM | > 100 µM | 45.8 | > 100 | > 100 |  | 95.9 µM |  | 
OCC(O)C(O)C(O)C(O)/C=N/Nc1nc(O)c(/C=C2\C=Nc3ccccc32)[nH]1 (configuration not stated) | > 100 | > 100 | 97.7 µM | > 100 µM | > 100 µM | > 100 | > 100 | > 100 | > 100 | > 100 µM |  | 
COP(C)(=O)C(Cc1c[nH]c2ccccc12)NC(=O)OCc1ccccc1 (configuration not stated) | > 100 | > 100 | > 100 µM | > 100 µM | > 100 µM | > 100 | > 100 | > 100 | > 100 | > 100 µM |  | 
Cc1cc(O)c(C(C)C)cc1N=Cc1ccccc1O | 26.9 | 41.2 | 25.4 µM | 18.8 µM | 0.0897 µM | 2.64 | 14 | > 22.3 | > 74 | 37.9 µM |  | 
CCCCCCCCCCSCC(CO)NC(=O)/C=C/c1c(C)[nH]c(=O)[nH]c1=O (configuration not stated) |  | > 50 | 14.3 µM and 5.19 µM | 8.06 µM and 13.1 µM | 3.97 µM and 2.97 µM | > 25.7 | > 50 | > 50 | > 50 | 14.3 µM and > 50 µM |  | 1.76 µM and 5.54 µM
Cc1ccc2c(=O)c(-c3n[nH]c(=S)s3)c[nH]c2n1 | > 100 | > 100 | > 100 µM | > 100 µM | > 100 µM | > 100 | > 100 | > 100 | > 100 | > 100 µM |  | 
NCCCC[C@H](N)C(=O)Nc1ccc(-c2nc3ccccc3s2)cc1Cl | 26.2 | 17.8 | 32.7 µM | 25.9 µM | 14.7 µM | 27.3 | 7.81 | > 25 | 18.1 | > 37.6 µM |  | 
O=C(NN=C1CCCCC1)NN=C1CCCCC1 | > 100 | > 100 |  | > 100 µM | > 100 µM | > 100 | > 100 | > 100 | > 100 | > 100 µM |  | 
CC1=CC(=O)/C(=C/n2c(=S)[nH]c3ccccc32)C(=O)O1 | > 100 | > 100 | > 100 µM |  | > 100 µM | > 100 | > 100 | > 100 | > 100 | > 100 µM |  | 
COc1ccc2c(c1)-c1[nH]c3ccccc3c1CC2 | 31.7 | 29 | 29.4 µM | 28.2 µM | 50.8 µM |  | 26.8 | > 100 | 22.9 | 26.9 µM |  | 
CN1B(c2ccccc2)N(C)C(=O)N(C)C1=O | > 100 | > 100 | > 100 µM | > 100 µM | > 100 µM | > 100 | > 100 | > 100 | > 100 | > 100 µM |  | 
CN(CCO)/N=N/c1[nH]ncc1C(N)=O |  | > 100 | > 100 µM | > 100 µM | > 100 µM | > 100 | > 100 | > 100 | > 100 | > 100 µM |  | 
